Data published in paper PMC4888459 (Biochemical Journal, 2016).

Experiments:
[1] = molecular target: AgD from S. mutans (agmatine deiminase) (Streptococcus mutans, UniProt Q8DW17); test: IC50 plot; format: biochemical
[2] = molecular target: agmatine deiminase (AgD) (Listeria monocytogenes, UniProt A0A0H3G8U9); test: IC50, colorimetric; format: biochemical
[3] = substrate: N=C(N)NCCCCN; test: purified protein; format: biochemical, Listeria monocytogenes; conditions: active site (Cys356, His216; Asp94 and Asp218 believed to orient the substrate)

Sequence of AgD from S. mutans (agmatine deiminase) (Q8DW17 whole entry): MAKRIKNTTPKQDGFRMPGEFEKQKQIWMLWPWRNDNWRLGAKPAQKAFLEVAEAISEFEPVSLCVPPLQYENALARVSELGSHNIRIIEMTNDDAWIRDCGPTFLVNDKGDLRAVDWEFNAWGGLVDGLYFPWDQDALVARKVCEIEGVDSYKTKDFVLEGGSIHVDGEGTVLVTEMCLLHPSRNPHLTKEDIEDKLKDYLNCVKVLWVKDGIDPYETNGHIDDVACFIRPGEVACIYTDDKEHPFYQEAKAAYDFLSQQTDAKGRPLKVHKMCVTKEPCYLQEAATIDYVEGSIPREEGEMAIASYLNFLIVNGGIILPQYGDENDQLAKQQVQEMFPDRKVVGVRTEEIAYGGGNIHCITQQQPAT

Molecule	IC50 [2] [µM]	also measured
N=C(N)CCl [2-chloroacetamidine]	–	IC50 [1]: 400 ± 100 µM
N=C(CCl)NCCCCN [ABCA, N-(4-aminobutyl)-2-chloro-ethanimidamide]	78.5 ± 1.7	–
N=C(CF)NCCCCN [ABFA, N-(4-aminobutyl)-2-fluoro-ethanimidamide]	146 ± 15	–
agmatine deiminase (AgD) (Listeria monocytogenes 10403S) (protein) MRTIDSSSKKDGFRMPGEFEKHAGCYIIWPERPDNWRLGAKPAQKAFVDVATAISHFEPVTVVASSSQYVNARYMLSDEIRVVEMDNDDAWVRDSGPTFVVNDSGDVRGVDWSFNSWGGLVDGLYFPWDKDDQVAQKICELERKDRYRLADFVLEGGSIHVDGEGTLVTTEECLLSEGRNPQLSKQQIEMVLKEYLNLEKIIWLKRGIYLDETNGHVDNIFNYVRPGVVALAWTDDETDPQYEISKECFDILSNETDAKGRKLEVHKINVPKPILITDEESKGVDAVEGTLPREEGDRLAASYINYYTANGGVIFPLFGDPNDELAREKLQQLYPNCEVVGVKAREILLGGGNIHCITQQVPRG	–	Km [3]: 330 ± 90.0 µM
